{"source": "patent US10774039B2", "about": "“Cyclopropene amino acids and methods” (United Kingdom Research and Innovation, priority 2014, dated 2020)", "key": {"PylRS/tRNACUA pair [1]": {"system": "PylRS/tRNACUA pair", "assay": "Site-specific incorporation into sfGFP150TAG expressed in E. coli", "type": "cell-based, Methanosarcina barkeri", "conditions": "SfGFP gene with amber codon at position 150, E. coli, PylRS/tRNACUA pair", "method": "FIG. 2A: The PylRS/RNACUA pair directs efficient, site-specific incorporation of 3 into sfGFP bearing an amber stop codon at position 150.\nExpression and purification of sfGFP-3 from E. coli Electrocompetent E. coli DH10B cells were co-transformed with pBK-MbPylRS and psfGFP150TAG PyIT^14, 26. Transformed cells were recovered in S.O.B. (1 mL, supplemented with 0.2% glucose) for 1 h at 37° C. and used to inoculate LB containing 50 μg/mL kanamycin and 25 μg/mL tetracycline (LB-KT). The cells were incubated with shaking overnight at 37° C., 250 r.p.m. 1 mL of overnight culture was used to inoculate 100 mL of LB-KT½, the day culture was then incubated (37° C., 250 r.p.m). At O.D.600˜0.3, the culture was divided equally and supplemented with either 3 (1 mM) or H2O (500 μL) and incubated further (37° C., 250 r.p.m). At O.D.600˜0.6 protein expression was induced by the addition of arabinose (0.2%), after 4 h, the cells were harvested by centrifugation (4000 r.p.m, 20 min) and the pellet frozen until further use.\nThe frozen bacterial pellet was thawed on ice and resuspended in 2.5 mL lysis buffer (Bugbuster®, Novagen®, 50 μg/mL DNAse 1, Roche inhibitor cocktail and 20 mM imidazole). Cells were incubated (4° C., 30 minutes) then clarified by centrifugation (16000 g, 4° C., 30 minutes). The clarified lysates were transferred to fresh tubes and 100 μL Ni-NTA slurry added. The mixtures was incubated with agitation (4° C., 1 h) and then collected by centrifugation (1000 g, 4° C., 5 min). The beads were resuspended three times in 500 μL wash buffer (10 mM Tris-HCL, 40 mM imidazole, 200 mM NaCl, pH 8) and collected by centrifugation (1000 g, 4° C., 5 min). Finally, the beads were resuspended in 100 μL, elution buffer (10 mM Tris-HCL, 300 mM imidazole, 200 mM NaCl, pH 8), pelleted by centrifugation (1000 g, 4° C., 5 min) and the supernatant collected into fresh tubes. The elution was repeated three times with 100 μL of elution buffer. The purified proteins were analysed by 4-12% SDS-PAGE and LC-MS."}, "PylRS/tRNACUA pair [2]": {"target": "PylRS/tRNACUA pair (Methanosarcina mazei, UniProt Q8PWY1)", "sequence (Q8PWY1 whole entry, the tested form may be a part)": "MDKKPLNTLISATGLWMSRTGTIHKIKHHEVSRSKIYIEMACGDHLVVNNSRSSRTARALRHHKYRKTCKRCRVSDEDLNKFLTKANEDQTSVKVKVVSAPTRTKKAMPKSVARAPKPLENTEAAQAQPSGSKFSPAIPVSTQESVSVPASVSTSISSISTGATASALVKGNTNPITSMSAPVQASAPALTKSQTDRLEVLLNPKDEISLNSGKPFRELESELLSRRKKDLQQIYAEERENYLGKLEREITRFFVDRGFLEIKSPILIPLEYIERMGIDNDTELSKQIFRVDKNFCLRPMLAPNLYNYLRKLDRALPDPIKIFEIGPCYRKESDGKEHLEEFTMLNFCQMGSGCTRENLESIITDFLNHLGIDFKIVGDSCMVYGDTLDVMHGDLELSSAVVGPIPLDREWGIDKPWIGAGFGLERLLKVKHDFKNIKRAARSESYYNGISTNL", "assay": "Dual luciferase reporter assay on ovary extract of flies fed amino acid", "type": "in vivo, D. melanogaster", "parameters": "expressed in transfected cells; host or cells: transgenic Drosophila melanogaster, ovaries (UAS-PylRS driven by nos-vp16-GAL4)", "conditions": "flies fed 10 mM amino acid", "method": "Dual luciferase assay on ovary extract from 10 female flies expressing Triple-Rep-L in the presence or absence of 10 mM 1 or 10 mM 3. […] The error bars represent the standard deviation of 3 technical replicates from a single biological replicate. FIG. 10B: Site-specific incorporation of 3 (or 1) into GFP_TAG_mCherry-HA in flies expressing PylRS/PyltRNACUA. The full-length protein resulting from unnatural amino acid incorporation is detected by anti-HA western blot. FIG. 10C: Specific labelling of encoded 3 with tetrazine probes. Flies were fed with no amino acid, amino acid 1 (500 flies) or amino acid 3 (100 flies). […] The full-length protein containing the unnatural amino acid was immunoprecipitated from lysed ovaries with anti-GFP beads. The beads were labelled (4g, 4 μM, 200 μL, PBS, RT, 2 h) washed.\nTransgenic lines were created by P element insertion using a Drosophila embryo injection service (BestGene Inc.). Lines were generated using the following plasmids: pFT58 (Ala), pFT60 (Ser), pFT62 (Leu) and pFT63 (Met). nos-Gal4-VP16 (Bloomington 4937) and MS1096-Gal4 (Bloomington 8860) were used as Gal4 drivers. All flies were grown at 25° C. on standard Iberian medium. Flies were fed unnatural amino acids by mixing dried yeast with the appropriate concentration of amino acid (usually 10 mM) diluted in dH2O to make a paste. Ovaries were prepared from females that were grown on Iberian fly food supplemented with a yeast paste with or without the amino acid for a minimum of 48 hours. For proteome labelling experiments transgenic male flies of constructs FT58, FT60, FT62 and FT63 were crossed with nos-vp16-GAL4 virgins to generate FT58/nos-vp16-GAL4, FT60/nos-vp16-GAL4, FT62/nos-vp16-GAL4 and FT63/nos-vp16-GAL4 respectively.\nOvaries from 10 females of Triple Rep-L flies recombined with nos-Gal4-VP16 fed 3, 1 or no amino acid were dissected in 100 μl 1× Passive lysis buffer and processed for luciferase assays as previously described^20."}}}
{"smiles": "CC(C)(C)OC(=O)NCCCC[C@H](N)C(=O)O", "note": "[amino acid 1, N^ε-[(tert-butoxy)carbonyl]-L-lysine, reference compound]", "values": [{"measurement": "yield of protein", "setting": "PylRS/tRNACUA pair [1]", "value": "4 mg per litre of culture"}, {"measurement": "luciferase signal dependent on amino acid addition", "setting": "PylRS/tRNACUA pair [2]", "value": "strong luciferase signal"}]}
